According to US10807982B2, “Bromodomain inhibitors” (CELGENE QUANTICEL RESEARCH, INC., priority 2015, dated 2020):
Counter-ions that a name gives are not always drawn.

Experiments:
[1] = tested on: NCI-H460, human non-small cell lung cancer cells; assay: Cell-MTS cellular proliferation assay, NCI-H460; format: cell-based; settings: Homo sapiens, 168 hr incubation
Experimental: (§1) A colorimetric cellular proliferation assay (Cell-MTS assay) was performed to assess the ability of the heterocyclic derivative […] inhibitors disclosed herein to effect the proliferation of established cancer cell lines.
(§2) The Cell-MTS assay is a 7-day plate-based colorimetric assay which quantifies the amount of newly generated NADH in the presence or absence of test compound. The NADH level is used for the quantification of cancer cell proliferation.
(§3) Established cancer cell lines with a variety of driving mutations were obtained from American Type Culture Collection (ATCC) and routinely passaged according to ATCC protocols. For routine assay, these cells were seeded at densities which enabled ˜90% confluence after 7 days of culture. Raji, human Burkitts lymphoma cells, (cMYC) were seeded at 15,000 cells per 96-well. HL-60, human proleukemia cells, (NRAS, p16, p53, c-Myc amplified) were seeded at 5,000 cells per 96-well. NCI-H460, human non-small cell lung cancer cells. (KRAS, PIK3CA, STLK11, p16) were seeded at 3,000 cells per 96-well. 24 hr after plating, cells received an 11 point dilution of test compound with final concentration ranges from 100 µM to 2.0 nM. Cells were incubated in the presence of compound for 168 hr at 37° C., and 5% CO2. At the end of this incubation period, 80 µL of media is removed and 20 µL of CellTiter 96® AQueous Non-Radioactive Cell Proliferation Assay solution (Promega) was added. The cells were incubated until the OD490 was >0.6. IC50 values were calculated using the IDBS XLfit software package and include background subtracted OD490 values and normalization to DMSO controls. Cellular proliferation IC50 values were uploaded and archived using the Chem Biography Platform. Table 3 provides the results of the in vitro enzyme inhibition assay experiments and the in vitro cell-based assay experiments performed with the compounds disclosed herein: […]

[2] = tested on: Raji, human Burkitts lymphoma cells; assay: Cell-MTS cellular proliferation assay, Raji; format: cell-based; settings: Homo sapiens, 168 hr incubation
Experimental: as §1, §2, §3

BRD4(BD1) = BRD4(BD1) (Homo sapiens (Human), UniProt O60885); assay: In vitro enzyme inhibition assay (BRD4 AlphaScreen, H4-tetraacetyl peptide); format: binding; settings: BRD4(BD1) 2 nM, peptide 15 nM
Experimental: Determination of the IC50 for the heterocyclic derivative BRD4 inhibitors disclosed herein was performed as follows. His-tagged […] was cloned, expressed and purified to homogeneity. Filipakopoulos et al., 468 Nature 1067 (2010). BRD4 binding and inhibition was assessed by monitoring the interaction of biotinylated H4-tetraacetyl peptide (AnaSpec, H4K5/8/12/16(Ac), biotin—labeled) with the target using the AlphaScreen technology (Life Technologies). In a 384-well ProxiPlate BRD4(BD1) (2 nM final) was combined with peptide (15 nM final) in 50 mM HEPES (pH 7.3), 10 mM NaCl, 0.25 mM TCEP, 0.1% (w/v) BSA, and 0.005% (w/v) Brij-35 either in the presence of DMSO (final 0.4% DMSO) or compound dilution series in DMSO. After 20 min incubation at RT, Alpha streptavidin donor beads and Nickel Chelate acceptor beads were added to a final concentration of 5 μg/mL. After 2 hr of equilibration, plates were read on an Envision instrument and the IC50 was calculated using a four parameter non-linear curve fit.
The ability of the compounds disclosed herein to inhibit BRD4 activity was quantified and the respective IC50 value was determined.

[3] = tested on: HL-60, human proleukemia cells; assay: Cell-MTS cellular proliferation assay, HL-60; format: cell-based; settings: Homo sapiens, HL-60 cells, 168 hr incubation
Experimental: as §1, §2, §3

Structure (SMILES) | IC50 [1] | IC50 [2] | IC50 (BRD4(BD1)) | IC50 [3]
CCS(=O)(=O)N1CCOc2cc(OCC3CC3)c(-c3cn(C)c(=O)c4ccccc34)cc21 [Example 49, 4-[7-(cyclopropylmethoxy)-4-ethylsulfonyl-2,3-dihydro-1,4-benzoxazin-6-yl]-2-methylisoquinolin-1-one] | 500 to 5000 nM | ≤ 500 nM | ≤ 500 nM | ≤ 500 nM
Cc1cc(-c2cc(CS(C)(=O)=O)c3nc(C)n(CC4CC4)c3c2)cn(C)c1=O [Example 96, 5-[3-(cyclopropylmethyl)-2-methyl-7-(methylsulfonylmethyl)benzimidazol-5-yl]-1,3-dimethylpyridin-2-one] | > 5000 nM | ≤ 500 nM | ≤ 500 nM | ≤ 500 nM
CCN1Cc2cc(OCC3CC3)c(-c3cc(C)c(=O)n(C)c3)cc2S1(=O)=O [Example 8, 5-[5-(cyclopropylmethoxy)-2-ethyl-1,1-dioxo-3H-1,2-benzothiazol-6-yl]-1,3-dimethylpyridin-2-one] | 500 to 5000 nM | 500 to 5000 nM | ≤ 500 nM | ≤ 500 nM
Cc1cc(-c2cc(NS(C)(=O)=O)ccc2Oc2ccc(F)cc2F)c2n(c1=O)CCC2 [Example 86, N-[4-(2,4-difluorophenoxy)-3-(6-methyl-5-oxo-2,3-dihydro-1H-indolizin-8-yl)phenyl]methanesulfonamide] | > 5000 nM | ≤ 500 nM | ≤ 500 nM | ≤ 500 nM
CCS(=O)(=O)Nc1cc(-c2cn(C)c(=O)c3ccccc23)c2oc(C3CCCC3)nc2c1 [Example 53, N-[2-cyclopentyl-7-(2-methyl-1-oxoisoquinolin-4-yl)-1,3-benzoxazol-5-yl]ethanesulfonamide] | > 5000 nM | ≤ 500 nM | ≤ 500 nM | ≤ 500 nM
CCS(=O)(=O)Nc1cc(-c2cc(C)c(=O)n(C)c2)cc2c1cnn2Cc1ccccc1 [Example 42, N-[1-benzyl-6-(1,5-dimethyl-6-oxopyridin-3-yl)indazol-4-yl]ethanesulfonamide] | 500 to 5000 nM | ≤ 500 nM | ≤ 500 nM | ≤ 500 nM
CCOc1nc2c(CS(C)(=O)=O)cc(-c3cc(C)c(=O)n(C)c3)cc2n1CC1CC1 [Example 97, 5-[3-(cyclopropylmethyl)-2-ethoxy-7-(methylsulfonylmethyl)benzimidazol-5-yl]-1,3-dimethylpyridin-2-one] | > 5000 nM | ≤ 500 nM | ≤ 500 nM | ≤ 500 nM
CCS(=O)(=O)c1nn(C)c2cc(OCC3CC3)c(-c3cn(C)c(=O)c4ccccc34)cc12 [Example 30, 4-[6-(cyclopropylmethoxy)-3-ethylsulfonyl-1-methylindazol-5-yl]-2-methylisoquinolin-1-one] | 500 to 5000 nM | ≤ 500 nM | ≤ 500 nM | ≤ 500 nM
Cc1cc(-c2cc3c(cc2Oc2ccc(F)cc2F)CN(C)S3(=O)=O)cn(C)c1=O [Example 11, 5-[5-(2,4-difluorophenoxy)-2-methyl-1,1-dioxo-3H-1,2-benzothiazol-6-yl]-1,3-dimethylpyridin-2-one] | > 5000 nM | ≤ 500 nM | ≤ 500 nM | ≤ 500 nM
Cn1cc(-c2cc(NS(C)(=O)=O)c3c(c2)N(Cc2ccccc2)CC3)c2ccccc2c1=O [Example 20, N-[1-benzyl-6-(2-methyl-1-oxoisoquinolin-4-yl)-2,3-dihydroindol-4-yl]methanesulfonamide] | 500 to 5000 nM | ≤ 500 nM | ≤ 500 nM | ≤ 500 nM
Cc1cc(-c2cc(NS(C)(=O)=O)c3nc(C)n(Cc4cccc(F)c4)c3c2)cn(C)c1=O [Example 35, N-[6-(1,5-dimethyl-6-oxopyridin-3-yl)-1-[(3-fluorophenyl)methyl]-2-methylbenzimidazol-4-yl]methanesulfonamide] | 500 to 5000 nM | ≤ 500 nM | ≤ 500 nM | ≤ 500 nM
Cc1cc(-c2cc(NS(C)(=O)=O)ccc2Oc2ccc(F)cc2F)c2n(c1=O)CC(C)(C)C2 [Example 88, N-[4-(2,4-difluorophenoxy)-3-(2,2,6-trimethyl-5-oxo-1,3-dihydroindolizin-8-yl)phenyl]methanesulfonamide] | > 5000 nM | ≤ 500 nM | ≤ 500 nM | ≤ 500 nM
Cn1cc(-c2cc3c(S(C)(=O)=O)nn(C)c3cc2OCC2CC2)c2ccccc2c1=O [Example 29, 4-[6-(cyclopropylmethoxy)-1-methyl-3-methylsulfonylindazol-5-yl]-2-methylisoquinolin-1-one] | 500 to 5000 nM | ≤ 500 nM | ≤ 500 nM | ≤ 500 nM
CCS(=O)(=O)Nc1cc(-c2cc(C)c(=O)n(C)c2)c2oc(C3CC3)nc2c1 [Example 47, N-[2-cyclopropyl-7-(1,5-dimethyl-6-oxopyridin-3-yl)-1,3-benzoxazol-5-yl]ethanesulfonamide] | > 5000 nM | ≤ 500 nM | ≤ 500 nM | ≤ 500 nM
Cc1cc(-c2cc(S(C)(=O)=O)c3nc(C)n(Cc4ccccc4)c3c2)cn(C)c1=O [Example 67, 5-(3-benzyl-2-methyl-7-methylsulfonylbenzimidazol-5-yl)-1,3-dimethylpyridin-2-one] | > 5000 nM | ≤ 500 nM | ≤ 500 nM | ≤ 500 nM
Cc1cc(-c2cc(S(C)(=O)=O)ccc2OCC2CC2)c2n(c1=O)CC(C)(C)C2 [Example 87, 8-[2-(cyclopropylmethoxy)-5-methylsulfonylphenyl]-2,2,6-trimethyl-1,3-dihydroindolizin-5-one] | > 5000 nM | ≤ 500 nM | ≤ 500 nM | ≤ 500 nM
CCS(=O)(=O)N1CCc2cc(OCC3CC3)c(-c3cc(C)c(=O)n(C)c3)cc21 [Example 16, 5-[5-(cyclopropylmethoxy)-1-ethylsulfonyl-2,3-dihydroindol-6-yl]-1,3-dimethylpyridin-2-one] | > 5000 nM | ≤ 500 nM | ≤ 500 nM | ≤ 500 nM
CCS(=O)(=O)Nc1cc(-c2cc(C)c(=O)n(C)c2)cc2c1ncn2Cc1ccc(F)cc1F [Example 41, N-[1-[(2,4-difluorophenyl)methyl]-6-(1,5-dimethyl-6-oxopyridin-3-yl)benzimidazol-4-yl]ethanesulfonamide] | 500 to 5000 nM | ≤ 500 nM | ≤ 500 nM | ≤ 500 nM
Cc1cc(-c2cc(NS(C)(=O)=O)c3ccn(Cc4ccccc4)c3c2)cn(C)c1=O [Example 18, N-[1-benzyl-6-(1,5-dimethyl-6-oxopyridin-3-yl)indol-4-yl]methanesulfonamide] | 500 to 5000 nM | ≤ 500 nM | ≤ 500 nM | ≤ 500 nM
Cc1cc(-c2cc(NS(C)(=O)=O)c3c(F)nn(Cc4ccc(F)cc4)c3c2)cn(C)c1=O [Example 64, N-[6-(1,5-dimethyl-6-oxopyridin-3-yl)-3-fluoro-1-[(4-fluorophenyl)methyl]indazol-4-yl]methanesulfonamide] | > 5000 nM | ≤ 500 nM | ≤ 500 nM | ≤ 500 nM
CCCCn1c(C)nc2c(NS(C)(=O)=O)cc(-c3cc(C)c(=O)n(C)c3)cc21 [Example 94, N-[1-butyl-6-(1,5-dimethyl-6-oxopyridin-3-yl)-2-methylbenzimidazol-4-yl]methanesulfonamide hydrochloride] | > 5000 nM | ≤ 500 nM | ≤ 500 nM | ≤ 500 nM
CCS(=O)(=O)Nc1cc(-c2cc(C)c(=O)n(C)c2)c2oc(C3CC3)cc2c1 | 500 to 5000 nM | ≤ 500 nM | ≤ 500 nM | ≤ 500 nM
Cc1cc(-c2cc(NS(C)(=O)=O)c3nc(C(F)(F)F)n(CC4CC4)c3c2)cn(C)c1=O [Example 92, N-[1-(cyclopropylmethyl)-6-(1,5-dimethyl-6-oxopyridin-3-yl)-2-(trifluoromethyl)benzimidazol-4-yl]methanesulfonamide] | 500 to 5000 nM | ≤ 500 nM | ≤ 500 nM | ≤ 500 nM
